Results from PubChem BioAssay AID2060500 (Molecular Pharmacology Branch, DTP, NCI, 2025).

System: 596521-263-R-J1-PDC complex spheroids, viability % of control
Test: Anticancer human tumor 596521-263-R-J1-PDC patient-derived soft tissue sarcoma cell line growth inhibition [GQUAD]
Details: for IC50: curve of first compound; for viability, T/C: stronger effect = lower value
Outline: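 Viability of tumor cells grown as complex spheroids with endothelial and stromal cells, exposed to drug combinations. Top concentration at or near clinical Cmax (else 10 microM), diluted in half-log increments.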

[1] = second compound 0.0316 µM, first compound 0.0316 µM
[2] = second compound 0.0316 µM, first compound 0.1 µM
[3] = second compound 0.0316 µM, first compound 0.316 µM
[4] = second compound 0.0316 µM, first compound 1 µM
[5] = second compound 0.0316 µM, first compound 3.16 µM
[6] = second compound 0.0316 µM, first compound 10 µM
[7] = second compound 0.1 µM, first compound 0.0316 µM
[8] = second compound 0.1 µM, first compound 0.1 µM
[9] = second compound 0.1 µM, first compound 0.316 µM
[10] = second compound 0.1 µM, first compound 1 µM
[11] = second compound 0.1 µM, first compound 3.16 µM
[12] = second compound 0.1 µM, first compound 10 µM
[13] = second compound 0.316 µM, first compound 0.0316 µM
[14] = second compound 0.316 µM, first compound 0.1 µM
[15] = second compound 0.316 µM, first compound 0.316 µM
[16] = second compound 0.316 µM, first compound 1 µM
[17] = second compound 0.316 µM, first compound 3.16 µM
[18] = second compound 0.316 µM, first compound 10 µM
[19] = second compound 1 µM, first compound 0.0316 µM
[20] = second compound 1 µM, first compound 0.1 µM
[21] = second compound 1 µM, first compound 0.316 µM
[22] = second compound 1 µM, first compound 1 µM
[23] = second compound 1 µM, first compound 3.16 µM
[24] = second compound 1 µM, first compound 10 µM
[25] = second compound 3.16 µM, first compound 0.0316 µM
[26] = second compound 3.16 µM, first compound 0.1 µM
[27] = second compound 3.16 µM, first compound 0.316 µM
[28] = second compound 3.16 µM, first compound 1 µM
[29] = second compound 3.16 µM, first compound 3.16 µM
[30] = second compound 3.16 µM, first compound 10 µM
[31] = second compound 10 µM, first compound 0.0316 µM
[32] = second compound 10 µM, first compound 0.1 µM
[33] = second compound 10 µM, first compound 0.316 µM
[34] = second compound 10 µM, first compound 1 µM
[35] = second compound 10 µM, first compound 3.16 µM
[36] = second compound 10 µM, first compound 10 µM
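Note: spheroids exposed to drugs for 7 days before viability reading.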
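Throughout, for viability, T/C: 100% = DMSO vehicle control viability.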

In the case of `C#Cc1c(F)ccc2cc(O)cc(-c3ncc4c(N5CC6CCC(C5)N6)nc(OCC56CCCN5CC(F)C6)nc4c3F)c12` (stereo not drawn) + Cc1[nH]c2ccc(F)cc2c1-c1nc2c3cccnc3c3ncccc3c2[nH]1, the IC50 (second compound 0.0316 µM) is reported as 1280 nM, the IC50 (second compound 0.1 µM) is reported as 1390 nM and the IC50 (second compound 0.316 µM) is reported as 1380 nM. It also gave an IC50 (second compound 1 µM) of 1350 nM, an IC50 (second compound 3.16 µM) of 1710 nM and an IC50 (second compound 10 µM) of 1490 nM. It also gave a viability, T/C [1] of 111%, a viability, T/C [2] of 94.7% and a viability, T/C [3] of 89.1%. The viability, T/C [4] was 60.9%, the viability, T/C [5] was 17.9% and the viability, T/C [6] was 18.9%. The viability, T/C [7] was 104%, the viability, T/C [8] was 93.3% and the viability, T/C [9] was 97.4%. For the same compound, the viability, T/C [10] was 62.1%, the viability, T/C [11] was 17.5% and the viability, T/C [12] was 22.7%. For the same compound, the viability, T/C [13] was 113%, the viability, T/C [14] was 95.6% and the viability, T/C [15] was 97.3%. It also gave a viability, T/C [16] of 62.5%, a viability, T/C [17] of 16.1% and a viability, T/C [18] of 21.2%. The viability, T/C [19] was 88%, the viability, T/C [20] was 87.7% and the viability, T/C [21] was 92.9%. It also gave a viability, T/C [22] of 59.9%, a viability, T/C [23] of 21.1% and a viability, T/C [24] of 22.5%. For the same compound, the viability, T/C [25] was 83.8%, the viability, T/C [26] was 95.1% and the viability, T/C [27] was 80.7%. The viability, T/C [28] was 65.9%, the viability, T/C [29] was 31.6% and the viability, T/C [30] was 29%. For the same compound, the viability, T/C [31] was 78.3%, the viability, T/C [32] was 78% and the viability, T/C [33] was 81%. For the same compound, the viability, T/C [34] was 60.8%, the viability, T/C [35] was 29.1% and the viability, T/C [36] was 30%.

Compound `Cc1[nH]c2ccccc2c1CCNCc1ccc(/C=C/C(=O)NO)cc1` + Cc1[nH]c2ccc(F)cc2c1-c1nc2c3cccnc3c3ncccc3c2[nH]1 has an IC50 (second compound 0.0316 µM) of over 316 nM, an IC50 (second compound 0.1 µM) of over 316 nM and an IC50 (second compound 0.316 µM) of over 316 nM. It also gave an IC50 (second compound 1 µM) of over 316 nM, an IC50 (second compound 3.16 µM) of over 316 nM and an IC50 (second compound 10 µM) of over 316 nM. For the same compound, the viability, T/C (second compound 0.0316 µM, first compound 0.000999 µM) was 108%, the viability, T/C (second compound 0.0316 µM, first compound 0.00316 µM) was 97% and the viability, T/C (second compound 0.0316 µM, first compound 0.00999 µM) was 100%. For the same compound, the viability, T/C [1] was 82%, the viability, T/C (second compound 0.0316 µM, first compound 0.0999 µM) was 96.4% and the viability, T/C [3] was 90.1%. It also gave a viability, T/C (second compound 0.1 µM, first compound 0.000999 µM) of 99.3%, a viability, T/C (second compound 0.1 µM, first compound 0.00316 µM) of 90.6% and a viability, T/C (second compound 0.1 µM, first compound 0.00999 µM) of 94.2%. For the same compound, the viability, T/C [7] was 91.3%, the viability, T/C (second compound 0.1 µM, first compound 0.0999 µM) was 86.9% and the viability, T/C [9] was 92.7%. The viability, T/C (second compound 0.316 µM, first compound 0.000999 µM) was 102%, the viability, T/C (second compound 0.316 µM, first compound 0.00316 µM) was 94.7% and the viability, T/C (second compound 0.316 µM, first compound 0.00999 µM) was 93.2%. For the same compound, the viability, T/C [13] was 94.3%, the viability, T/C (second compound 0.316 µM, first compound 0.0999 µM) was 87% and the viability, T/C [15] was 94.9%. For the same compound, the viability, T/C (second compound 1 µM, first compound 0.000999 µM) was 95.9%, the viability, T/C (second compound 1 µM, first compound 0.00316 µM) was 99.6% and the viability, T/C (second compound 1 µM, first compound 0.00999 µM) was 91.4%. For the same compound, the viability, T/C [19] was 83.9%, the viability, T/C (second compound 1 µM, first compound 0.0999 µM) was 90.1% and the viability, T/C [21] was 94.2%. The viability, T/C (second compound 3.16 µM, first compound 0.000999 µM) was 82.6%, the viability, T/C (second compound 3.16 µM, first compound 0.00316 µM) was 82.2% and the viability, T/C (second compound 3.16 µM, first compound 0.00999 µM) was 91%. It also gave a viability, T/C [25] of 90.1%, a viability, T/C (second compound 3.16 µM, first compound 0.0999 µM) of 84.1% and a viability, T/C [27] of 88.8%. The viability, T/C (second compound 10 µM, first compound 0.000999 µM) was 81.2%, the viability, T/C (second compound 10 µM, first compound 0.00316 µM) was 67.2% and the viability, T/C (second compound 10 µM, first compound 0.00999 µM) was 85%. The viability, T/C [31] was 75.5%, the viability, T/C (second compound 10 µM, first compound 0.0999 µM) was 76.4% and the viability, T/C [33] was 72%.

For `CC(=O)O[C@H]1C(=O)[C@@]2(C)[C@H]([C@H](OC(=O)c3ccccc3)[C@]3(O)C[C@H](OC(=O)[C@H](O)[C@@H](NC(=O)c4ccccc4)c4ccccc4)C(C)=C1C3(C)C)[C@]1(OC(C)=O)CO[C@@H]1C[C@@H]2O` + Cc1[nH]c2ccc(F)cc2c1-c1nc2c3cccnc3c3ncccc3c2[nH]1, the IC50 (second compound 0.0316 µM) was 122 nM, the IC50 (second compound 0.1 µM) was 144 nM and the IC50 (second compound 0.316 µM) was 173 nM. It also gave an IC50 (second compound 1 µM) of 212 nM, an IC50 (second compound 3.16 µM) of 204 nM and an IC50 (second compound 10 µM) of 226 nM. It also gave a viability, T/C [1] of 90.8%, a viability, T/C [2] of 55.8% and a viability, T/C [3] of 20.6%. The viability, T/C [4] was 0.81%, the viability, T/C [5] was 0.38% and the viability, T/C [6] was 0.28%. For the same compound, the viability, T/C [7] was 96.1%, the viability, T/C [8] was 60.2% and the viability, T/C [9] was 28.2%. It also gave a viability, T/C [10] of 0.74%, a viability, T/C [11] of 0.23% and a viability, T/C [12] of 0.22%. It also gave a viability, T/C [13] of 107%, a viability, T/C [14] of 69.1% and a viability, T/C [15] of 30.8%. The viability, T/C [16] was 1.26%, the viability, T/C [17] was 0.2% and the viability, T/C [18] was 1.66%. The viability, T/C [19] was 89.1%, the viability, T/C [20] was 74.9% and the viability, T/C [21] was 37.5%. It also gave a viability, T/C [22] of 1.83%, a viability, T/C [23] of 0.31% and a viability, T/C [24] of 0.28%. It also gave a viability, T/C [25] of 85.4%, a viability, T/C [26] of 69% and a viability, T/C [27] of 39.2%. It also gave a viability, T/C [28] of 1.48%, a viability, T/C [29] of 0.34% and a viability, T/C [30] of 1.18%. It also gave a viability, T/C [31] of 71.3%, a viability, T/C [32] of 65.2% and a viability, T/C [33] of 42.9%. For the same compound, the viability, T/C [34] was 1.48%, the viability, T/C [35] was 0.49% and the viability, T/C [36] was 0.31%.

`CC(C)n1c(=O)n(C)c2cnc3cc(F)c(-c4ccc(OCCCN5CCCCC5)nc4)cc3c21` + Cc1cnc(CNC(=O)c2c(=O)c3ccc(N4CCCN(C)CC4)nc3n3c2sc2ccccc23)cn1 showed an IC50 (second compound 0.0316 µM) of over 10000 nM, an IC50 (second compound 0.1 µM) of over 10000 nM and an IC50 (second compound 0.316 µM) of over 10000 nM. The IC50 (second compound 1 µM) was over 10000 nM, the IC50 (second compound 3.16 µM) was 224 nM and the IC50 (second compound 10 µM) was under 31.6 nM. For the same compound, the viability, T/C [1] was 82.1%, the viability, T/C [2] was 67% and the viability, T/C [3] was 78.3%. For the same compound, the viability, T/C [4] was 73%, the viability, T/C [5] was 75.5% and the viability, T/C [6] was 61.9%. For the same compound, the viability, T/C [7] was 70.6%, the viability, T/C [8] was 61.3% and the viability, T/C [9] was 68.2%. The viability, T/C [10] was 63.9%, the viability, T/C [11] was 58.6% and the viability, T/C [12] was 57.8%. For the same compound, the viability, T/C [13] was 69.3%, the viability, T/C [14] was 67.3% and the viability, T/C [15] was 63.5%. The viability, T/C [16] was 62.5%, the viability, T/C [17] was 62.4% and the viability, T/C [18] was 47.6%. For the same compound, the viability, T/C [19] was 63.8%, the viability, T/C [20] was 61.8% and the viability, T/C [21] was 52.3%. It also gave a viability, T/C [22] of 54.3%, a viability, T/C [23] of 64.4% and a viability, T/C [24] of 48.3%. For the same compound, the viability, T/C [25] was 51.6%, the viability, T/C [26] was 53.3% and the viability, T/C [27] was 49.7%. The viability, T/C [28] was 46.4%, the viability, T/C [29] was 42.5% and the viability, T/C [30] was 40.3%. The viability, T/C [31] was 51.8%, the viability, T/C [32] was 44.7% and the viability, T/C [33] was 44.9%. For the same compound, the viability, T/C [34] was 44.9%, the viability, T/C [35] was 46.7% and the viability, T/C [36] was 9.8%.
